Reference: ChEMBL document CHEMBL3885861, “Open TG-GATES”

Organism: Rattus norvegicus
Assay: Open TG-GATES - Regimen: Single
Type: toxicity, organism-based, Sprague-Dawley
Set-up: regimen Single, gender Male, age 6 weeks
Conditions: in vivo, po, route gavage; for APTT / Bas / Eos / Fbg / Hb / Ht / Lym / MCH / MCHC / MCV / Mono / Neu / PT / Plat / RBC / Ret / WBC: tissue Blood; for KIDNEY_L / KIDNEY_R / KIDNEY_TOTAL: tissue Kidney; for LIVER: tissue Liver; for A/G / ALP / ALT / AST / BUN / CRE / Ca / Cl / DBIL / GLC / IP / K / LDH / Na / PL / RALB / TBIL / TC / TG / TP / gamma-GTP: tissue Plasma
[1] = 300 mg/kg, 3 h, dose level Middle
[2] = 300 mg/kg, 6 h, dose level Middle
[3] = 300 mg/kg, 9 h, dose level Middle
[4] = 300 mg/kg, 24 h, dose level Middle
[5] = 1000 mg/kg, 3 h, dose level High
[6] = 1000 mg/kg, 6 h, dose level High
[7] = 1000 mg/kg, 9 h, dose level High
[8] = 1000 mg/kg, 24 h, dose level High

## CNC(=C[N+](=O)[O-])NCCSCc1ccc(CN(C)C)o1 [RANITIDINE]
[1]
  TERMINAL_BW: 216.6 g
  APTT: 21.3 s
  Bas: 0%
  Eos: 1.2%
  Fbg: 224 mg/dL
  Hb: 13.1 g/dL
  Ht: 38.4%
  Lym: 75.2%
  MCH: 21.7 pg
  MCHC: 34.2%
  MCV: 63.4 fL
  Mono: 2.4%
  Neu: 18.8%
  PT: 12.5 s
  Plat: 125.4 x10_4/uL
  RBC: 606 x10_4/ul
  Ret: 6.6%
  WBC: 93.9 x10_2/uL
  KIDNEY_L: 1 g
  KIDNEY_R: 1 g
  KIDNEY_TOTAL: 2 g
  LIVER: 9.9 g
  A/G: 1.7
  ALP: 1000.2 IU/L
  ALT: 34.4 IU/L
  AST: 63.8 IU/L
  BUN: 10.2 mg/dL
  CRE: 0.4 mg/dL
  Ca: 10.7 mg/dL
  Cl: 103.8 meq/L
  DBIL: 0.07 mg/dL
  GLC: 195.6 mg/dL
  IP: 8.4 mg/dL
  K: 3.8 meq/L
  LDH: 141.6 IU/L
  Na: 141.6 meq/L
  PL: 141.2 mg/dL
  RALB: 3.4 g/dL
  TBIL: 0.1 mg/dL
  TC: 74.2 mg/dL
  TG: 48 mg/dL
  TP: 5.5 g/dL
  gamma-GTP: 0.8 IU/L
[2]
  TERMINAL_BW: 214.7 g
  APTT: 18.8 s
  Bas: 0%
  Eos: 1%
  Fbg: 220.8 mg/dL
  Hb: 13.1 g/dL
  Ht: 37.8%
  Lym: 72.6%
  MCH: 21.6 pg
  MCHC: 34.7%
  MCV: 62.4 fL
  Mono: 2.4%
  Neu: 19.8%
  PT: 12.6 s
  Plat: 119.8 x10_4/uL
  RBC: 605 x10_4/ul
  Ret: 6.9%
  WBC: 82.1 x10_2/uL
  KIDNEY_L: 1 g
  KIDNEY_R: 1 g
  KIDNEY_TOTAL: 1.9 g
  LIVER: 9.2 g
  A/G: 1.6
  ALP: 918.8 IU/L
  ALT: 36.6 IU/L
  AST: 69.6 IU/L
  BUN: 8.4 mg/dL
  CRE: 0.4 mg/dL
  Ca: 10.4 mg/dL
  Cl: 103.6 meq/L
  DBIL: 0.06 mg/dL
  GLC: 193.4 mg/dL
  IP: 8.5 mg/dL
  K: 3.8 meq/L
  LDH: 111.4 IU/L
  Na: 140.4 meq/L
  PL: 129.2 mg/dL
  RALB: 3.3 g/dL
  TBIL: 0.1 mg/dL
  TC: 69.2 mg/dL
  TG: 43.2 mg/dL
  TP: 5.4 g/dL
  gamma-GTP: 1.4 IU/L
[3]
  TERMINAL_BW: 211.5 g
  APTT: 19.5 s
  Bas: 0%
  Eos: 1%
  Fbg: 241 mg/dL
  Hb: 13.3 g/dL
  Ht: 38.2%
  Lym: 67.8%
  MCH: 21.6 pg
  MCHC: 34.7%
  MCV: 62.3 fL
  Mono: 2.6%
  Neu: 26%
  PT: 12.7 s
  Plat: 116.8 x10_4/uL
  RBC: 614.4 x10_4/ul
  Ret: 7.2%
  WBC: 76 x10_2/uL
  KIDNEY_L: 1 g
  KIDNEY_R: 1 g
  KIDNEY_TOTAL: 1.9 g
  LIVER: 9.2 g
  A/G: 1.6
  ALP: 741.8 IU/L
  ALT: 32 IU/L
  AST: 61 IU/L
  BUN: 9.8 mg/dL
  CRE: 0.4 mg/dL
  Ca: 10.5 mg/dL
  Cl: 103.8 meq/L
  DBIL: 0.074 mg/dL
  GLC: 204.6 mg/dL
  IP: 8.4 mg/dL
  K: 3.6 meq/L
  LDH: 120.6 IU/L
  Na: 141.6 meq/L
  PL: 143.8 mg/dL
  RALB: 3.4 g/dL
  TBIL: 0.1 mg/dL
  TC: 76.4 mg/dL
  TG: 46 mg/dL
  TP: 5.6 g/dL
  gamma-GTP: 1.4 IU/L
[4]
  TERMINAL_BW: 230.2 g
  APTT: 23.9 s
  Bas: 0%
  Eos: 1%
  Fbg: 225.4 mg/dL
  Hb: 13.6 g/dL
  Ht: 38.7%
  Lym: 80.6%
  MCH: 22.5 pg
  MCHC: 35%
  MCV: 64.2 fL
  Mono: 2.4%
  Neu: 14%
  PT: 12.3 s
  Plat: 125.9 x10_4/uL
  RBC: 603.2 x10_4/ul
  Ret: 6.3%
  WBC: 104.2 x10_2/uL
  KIDNEY_L: 1 g
  KIDNEY_R: 1 g
  KIDNEY_TOTAL: 2 g
  LIVER: 11.2 g
  A/G: 1.7
  ALP: 1036.4 IU/L
  ALT: 33.4 IU/L
  AST: 63.2 IU/L
  BUN: 15.8 mg/dL
  CRE: 0.4 mg/dL
  Ca: 10.7 mg/dL
  Cl: 102.2 meq/L
  DBIL: 0.086 mg/dL
  GLC: 196.6 mg/dL
  IP: 7.6 mg/dL
  K: 4 meq/L
  LDH: 132.6 IU/L
  Na: 140 meq/L
  PL: 152.8 mg/dL
  RALB: 3.4 g/dL
  TBIL: 0.1 mg/dL
  TC: 79.2 mg/dL
  TG: 78.6 mg/dL
  TP: 5.3 g/dL
  gamma-GTP: 1 IU/L
[5]
  TERMINAL_BW: 218.6 g
  APTT: 21.3 s
  Bas: 0%
  Eos: 1%
  Fbg: 209 mg/dL
  Hb: 12.7 g/dL
  Ht: 36.7%
  Lym: 76.2%
  MCH: 21.7 pg
  MCHC: 34.7%
  MCV: 62.7 fL
  Mono: 2.4%
  Neu: 17.4%
  PT: 12.5 s
  Plat: 116.7 x10_4/uL
  RBC: 585.2 x10_4/ul
  Ret: 7.1%
  WBC: 84.3 x10_2/uL
  KIDNEY_L: 1 g
  KIDNEY_R: 1 g
  KIDNEY_TOTAL: 2.1 g
  LIVER: 10.5 g
  A/G: 1.7
  ALP: 944 IU/L
  ALT: 35.8 IU/L
  AST: 67.2 IU/L
  BUN: 9.4 mg/dL
  CRE: 0.4 mg/dL
  Ca: 10.5 mg/dL
  Cl: 104.4 meq/L
  DBIL: 0.064 mg/dL
  GLC: 181.2 mg/dL
  IP: 8.2 mg/dL
  K: 3.7 meq/L
  LDH: 148 IU/L
  Na: 141.4 meq/L
  PL: 133.6 mg/dL
  RALB: 3.3 g/dL
  TBIL: 0.1 mg/dL
  TC: 68 mg/dL
  TG: 44.8 mg/dL
  TP: 5.3 g/dL
  gamma-GTP: 1.2 IU/L
[6]
  TERMINAL_BW: 213.4 g
  APTT: 18.8 s
  Bas: 0%
  Eos: 1%
  Fbg: 232.8 mg/dL
  Hb: 13.4 g/dL
  Ht: 38%
  Lym: 72.8%
  MCH: 21.7 pg
  MCHC: 35.1%
  MCV: 62 fL
  Mono: 3%
  Neu: 18.4%
  PT: 12.7 s
  Plat: 106.2 x10_4/uL
  RBC: 613.8 x10_4/ul
  Ret: 7.1%
  WBC: 88.7 x10_2/uL
  KIDNEY_L: 0.9 g
  KIDNEY_R: 0.9 g
  KIDNEY_TOTAL: 1.9 g
  LIVER: 9.8 g
  A/G: 1.7
  ALP: 906.4 IU/L
  ALT: 37.2 IU/L
  AST: 63.8 IU/L
  BUN: 9.4 mg/dL
  CRE: 0.4 mg/dL
  Ca: 10.6 mg/dL
  Cl: 104 meq/L
  DBIL: 0.066 mg/dL
  GLC: 193.4 mg/dL
  IP: 8.3 mg/dL
  K: 3.6 meq/L
  LDH: 126.4 IU/L
  Na: 141 meq/L
  PL: 151.4 mg/dL
  RALB: 3.4 g/dL
  TBIL: 0.1 mg/dL
  TC: 80.8 mg/dL
  TG: 47.8 mg/dL
  TP: 5.4 g/dL
  gamma-GTP: 1.4 IU/L
[7]
  TERMINAL_BW: 210.2 g
  APTT: 20.1 s
  Bas: 0%
  Eos: 1%
  Fbg: 242.2 mg/dL
  Hb: 13.2 g/dL
  Ht: 38%
  Lym: 68.6%
  MCH: 21.8 pg
  MCHC: 34.8%
  MCV: 62.5 fL
  Mono: 2.4%
  Neu: 24.2%
  PT: 12.6 s
  Plat: 111.9 x10_4/uL
  RBC: 607.2 x10_4/ul
  Ret: 7.3%
  WBC: 74.1 x10_2/uL
  KIDNEY_L: 1 g
  KIDNEY_R: 1 g
  KIDNEY_TOTAL: 1.9 g
  LIVER: 9.2 g
  A/G: 1.6
  ALP: 955.2 IU/L
  ALT: 36 IU/L
  AST: 65.8 IU/L
  BUN: 8.8 mg/dL
  CRE: 0.3 mg/dL
  Ca: 10.6 mg/dL
  Cl: 103.8 meq/L
  DBIL: 0.066 mg/dL
  GLC: 197 mg/dL
  IP: 8.6 mg/dL
  K: 3.6 meq/L
  LDH: 126 IU/L
  Na: 140.8 meq/L
  PL: 152 mg/dL
  RALB: 3.4 g/dL
  TBIL: 0.1 mg/dL
  TC: 84.6 mg/dL
  TG: 30.2 mg/dL
  TP: 5.5 g/dL
  gamma-GTP: 1.2 IU/L
[8]
  TERMINAL_BW: 228.9 g
  APTT: 20.1 s
  Bas: 0.2%
  Eos: 1%
  Fbg: 235 mg/dL
  Hb: 13.9 g/dL
  Ht: 39.1%
  Lym: 79%
  MCH: 22.4 pg
  MCHC: 35.5%
  MCV: 63 fL
  Mono: 3.2%
  Neu: 15%
  PT: 11.7 s
  Plat: 122.4 x10_4/uL
  RBC: 621.4 x10_4/ul
  Ret: 5.9%
  WBC: 75.4 x10_2/uL
  KIDNEY_L: 1 g
  KIDNEY_R: 1 g
  KIDNEY_TOTAL: 2 g
  LIVER: 10.7 g
  A/G: 1.6
  ALP: 881.6 IU/L
  ALT: 33.2 IU/L
  AST: 60.4 IU/L
  BUN: 15.4 mg/dL
  CRE: 0.4 mg/dL
  Ca: 10.8 mg/dL
  Cl: 101.6 meq/L
  DBIL: 0.078 mg/dL
  GLC: 204.2 mg/dL
  IP: 7.9 mg/dL
  K: 3.7 meq/L
  LDH: 127.8 IU/L
  Na: 140.4 meq/L
  PL: 155.6 mg/dL
  RALB: 3.4 g/dL
  TBIL: 0.1 mg/dL
  TC: 84.4 mg/dL
  TG: 67.8 mg/dL
  TP: 5.6 g/dL
  gamma-GTP: 0.8 IU/L
